The text below walks through data of patent publication US11964973B2 (priority 2019, dated 2024).

The target in one assay is Human DGKα(9-727) (Homo sapiens (Human), UniProt P23743). In words: biochemical. Conditions: liposome (LIPGLO) assay; Table A; read-out: DGKα LIPGLO IC50.
The target of another assay is full length human DGKζ (Homo sapiens (Human), UniProt Q13574). The assay can be described thus: In vitro DGK inhibition assay, Method B (DGKζ LIPGLO, extruded liposomes). The class given is biochemical. Conditions: liposome (LIPGLO) assay; read-out: DGKζ LIPGLO IC50.
Chain of full length human DGKζ (Q13574 whole entry, looked up): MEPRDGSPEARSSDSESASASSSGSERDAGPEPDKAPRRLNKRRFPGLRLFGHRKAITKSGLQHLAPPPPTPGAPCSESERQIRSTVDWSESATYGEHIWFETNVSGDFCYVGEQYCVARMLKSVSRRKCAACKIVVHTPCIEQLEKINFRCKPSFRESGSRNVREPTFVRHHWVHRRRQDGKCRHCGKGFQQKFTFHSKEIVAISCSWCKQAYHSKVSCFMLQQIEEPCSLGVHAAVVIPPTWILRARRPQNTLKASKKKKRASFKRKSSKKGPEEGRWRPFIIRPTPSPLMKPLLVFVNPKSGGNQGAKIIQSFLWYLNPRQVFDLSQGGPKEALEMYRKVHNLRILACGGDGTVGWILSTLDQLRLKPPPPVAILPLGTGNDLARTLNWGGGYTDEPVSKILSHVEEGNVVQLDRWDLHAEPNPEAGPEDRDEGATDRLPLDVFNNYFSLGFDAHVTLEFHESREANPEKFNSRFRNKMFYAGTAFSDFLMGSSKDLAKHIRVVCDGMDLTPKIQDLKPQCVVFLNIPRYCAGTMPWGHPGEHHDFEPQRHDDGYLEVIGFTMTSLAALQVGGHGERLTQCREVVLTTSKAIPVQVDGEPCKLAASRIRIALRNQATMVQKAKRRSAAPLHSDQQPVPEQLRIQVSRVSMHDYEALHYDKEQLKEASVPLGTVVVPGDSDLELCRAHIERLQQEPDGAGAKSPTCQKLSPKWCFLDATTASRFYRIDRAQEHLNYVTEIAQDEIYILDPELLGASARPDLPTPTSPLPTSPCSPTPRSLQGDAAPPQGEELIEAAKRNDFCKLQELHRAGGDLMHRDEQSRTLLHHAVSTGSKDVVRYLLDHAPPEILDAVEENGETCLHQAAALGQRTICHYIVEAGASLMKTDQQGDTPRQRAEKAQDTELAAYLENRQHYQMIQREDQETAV
Assay [1] has as its system human venous whole blood, CD8 positive population (pERK). The assay can be described thus: DGK human whole blood pERK assay. The format is cell-based. The conditions noted are these: top concentration 20 μM. The essentials:
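Read-out is the pERK-positive fraction of CD8+ cells measured by flow cytometry. Donor venous blood (heparin) saw compound for one hour at 37° C before a 15-minute anti-CD3 challenge (1 μg/mL final) with cross-linking anti-mouse IgG.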

The subject of assay [2] is naïve human CD8 T cells (IFN-γ). The assay can be described thus: Human CD8 T cells IFN-γ assay. The format is cell-based. Conditions: T-cell, read-out: HuCD8 INFG. The protocol: Assay 8: Human CD8 T Cells IFN-γ Assay
Frozen naïve human CD8 T cells were thawed in AIM-V media, incubated for 2 h in 37° C., and counted. The 384-well tissue culture plate was coated overnight at 4° C. with 20 μL anti-human CD3 at 0.05 μg/mL in PBS, which was removed off the plate before 40,000 cells per 40 microliters CD8 T cells with 0.1 μg/mL soluble anti-human CD28 were added to each well. The compounds were transferred using an Echo liquid handler to the cell plate immediately after the cells were plated. After 20 h incubation at 37° C. incubator, 3 microliters per well supernatants transferred into a new 384-well white assay plate for cytokine measurement.
Interferon-γ (IFN-γ) was quantitated using the AlphLISA kit (Cat #AL217) as described by the manufacturer manual (Perkin Elmer). The counts from each well were converted to IFN-γ concentration (pg/mL).

Where [3] appears, read: human whole blood, CD8 positive population, anti-CD3 stimulation, read-out: DGK HWB (human whole blood pERK).
Where [4] appears, read: read-out: DGK HWB (human whole blood pERK), human whole blood, CD8 positive population, anti-CD3 stimulation.
[5] abbreviates: Homo sapiens, CD8 positive, human whole blood, CD8 positive population, anti-CD3 stimulation, read-out: DGK HWB (human whole blood pERK).

Where two headings read alike, the source gives them in different places.

Chain of Human DGKα(9-727) (P23743 whole entry, looked up): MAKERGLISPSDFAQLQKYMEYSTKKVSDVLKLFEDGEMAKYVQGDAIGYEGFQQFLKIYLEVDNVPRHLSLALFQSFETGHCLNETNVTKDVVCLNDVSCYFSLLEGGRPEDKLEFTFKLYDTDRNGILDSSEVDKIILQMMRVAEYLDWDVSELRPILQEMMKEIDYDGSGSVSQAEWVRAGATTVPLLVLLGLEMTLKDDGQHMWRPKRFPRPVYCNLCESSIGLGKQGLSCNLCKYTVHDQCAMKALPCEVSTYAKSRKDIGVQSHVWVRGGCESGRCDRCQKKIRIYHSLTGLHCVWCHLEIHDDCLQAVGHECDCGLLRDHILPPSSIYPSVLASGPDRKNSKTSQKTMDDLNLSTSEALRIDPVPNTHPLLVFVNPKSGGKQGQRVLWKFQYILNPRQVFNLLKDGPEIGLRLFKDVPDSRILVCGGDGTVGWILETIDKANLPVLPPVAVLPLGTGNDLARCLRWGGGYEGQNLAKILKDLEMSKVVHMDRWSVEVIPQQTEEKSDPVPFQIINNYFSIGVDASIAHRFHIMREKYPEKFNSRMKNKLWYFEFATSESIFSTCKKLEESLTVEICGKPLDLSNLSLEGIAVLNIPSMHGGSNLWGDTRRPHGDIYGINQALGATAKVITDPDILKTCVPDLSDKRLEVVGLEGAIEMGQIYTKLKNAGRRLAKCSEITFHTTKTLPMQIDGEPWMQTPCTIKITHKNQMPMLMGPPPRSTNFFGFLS

In the case of `CC(C)O[C@@H]1CN(c2cc(=O)n(C)c3ccc(C#N)nc23)CC[C@H]1Oc1cccc(C(F)(F)F)c1` (relative stereo) [Example 396, trans-8-(3-Isopropoxy-4-(3-(trifluoromethyl)phenoxy)piperidin-1-yl)-5-methyl-6-oxo-5,6-dihydro-1,5-naphthyridine-2-carbonitrile], the IC50 on Human DGKα(9-727) amounted to 38000 nM; at full length human DGKζ, 3600 nM. In assay [1] (setting [3]), the EC50 was 14000 nM.

For `CCO[C@@H]1CN(c2nc(=O)n(C)c3ccc(C#N)nc23)CC[C@H]1Oc1ccc(OC(C)C)cn1` (relative stereo) [Example 400, trans-4-(3-Ethoxy-4-((5-isopropoxypyridin-2-yl)oxy)piperidin-1-yl)-1-methyl-2-oxo-1,2-dihydropyrido[3,2-d]pyrimidine-6-carbonitrile], the IC50 on Human DGKα(9-727) is 6100 nM; on full length human DGKζ, 700 nM. In addition, in assay [1] (setting [3]), the EC50 turned out to be 9200 nM.

With `CCO[C@@H]1CN(c2nc(=O)n(C)c3ccc(C#N)nc23)CC[C@H]1Oc1ccc(OC(C)C)cn1` (relative stereo) [Example 401, trans-4-(3-Ethoxy-4-((5-isopropoxypyridin-2-yl)oxy)piperidin-1-yl)-1-methyl-2-oxo-1,2-dihydropyrido[3,2-d]pyrimidine-6-carbonitrile], the IC50 at Human DGKα(9-727) is 830 nM; at full length human DGKζ it was 390 nM. Also, the EC50 in assay [1] (setting [3]) was determined as 2300 nM.

Consider `CCO[C@H]1CN(c2nc(=O)n(C)c3ccc(C#N)nc23)CC[C@@H]1Oc1ccccc1` (relative stereo) [Example 402, trans-4-(3-Ethoxy-4-phenoxypiperidin-1-yl)-1-methyl-2-oxo-1,2-dihydropyrido[3,2-d] pyrimidine-6-carbonitrile], for which the concentration for half-maximal inhibition (IC50) on Human DGKα(9-727) stood at 2100 nM; on full length human DGKζ, 900 nM. For the same compound, the EC50 in assay [1] (setting [4]) is 2800 nM.

Consider `CCO[C@H]1CN(c2nc(=O)n(C)c3ccc(C#N)nc23)CC[C@@H]1Oc1ccccc1` (relative stereo) [Example 403, trans-4-(3-Ethoxy-4-phenoxypiperidin-1-yl)-1-methyl-2-oxo-1,2-dihydropyrido[3,2-d] pyrimidine-6-carbonitrile], for which the values for the half-maximal inhibitory concentration (IC50) on Human DGKα(9-727) and on full length human DGKζ were 19000 nM and 5300 nM, respectively. Besides, in assay [1] (setting [4]), the EC50 was 11000 nM.

Regarding `CCO[C@H]1CN(c2cc(=O)n(C)c3ccc(C#N)nc23)CC[C@@H]1OCc1cccc(C(F)(F)F)c1` (single isomer, unassigned) [Example 382], the values for the IC50 on Human DGKα(9-727) and on full length human DGKζ were 17000 nM and 130000 nM, respectively. Further, the EC50 in assay [1] (setting [5]) stood at 20000 nM.

As for `Cn1c(=O)c(Cl)c(N2CCC(Oc3ccc(OC(F)(F)F)cc3)CC2)c2nc(C#N)ccc21` [Example 238, 7-chloro-5-methyl-6-oxo-8-(4-(4-(trifluoromethoxy)phenoxy)piperidin-1-yl)-5,6-dihydro-1,5-naphthyridine-2-carbonitrile], the EC50 in assay [2] was determined as 160 nM.

Consider `Cn1c(=O)c(Br)c(N2CCC(Oc3ccc(OC(F)(F)F)cc3)CC2)c2nc(C#N)ccc21` [Example 239, 7-bromo-5-methyl-6-oxo-8-(4-(4-(trifluoromethoxy)phenoxy)piperidin-1-yl)-5,6-dihydro-1,5-naphthyridine-2-carbonitrile], for which the EC50 in assay [2] stood at 820 nM.

Take `CCO[C@H]1CN(c2cc(=O)n(C)c3ccc(C#N)nc23)CC[C@@H]1Oc1cnc(OC(C)C)cn1` [Example 377, 8-((3S,4S)-3-ethoxy-4-((5-isopropoxypyrazin-2-yl)oxy)piperidin-1-yl)-5-methyl-6-oxo-5,6-dihydro-1,5-naphthyridine-2-carbonitrile]: the IC50 at Human DGKα(9-727) is 130 nM; on full length human DGKζ, 75 nM. For the same compound, in assay [1] (setting [3]), the EC50 was 450 nM.

Turning to `CCO[C@H]1CN(c2cc(=O)n(C)c3ccc(C#N)nc23)CC[C@@H]1Oc1cnc(OC(C)C)cn1` [Example 378, 8-((3S,4S)-3-ethoxy-4-((5-isopropoxypyrazin-2-yl)oxy)piperidin-1-yl)-5-methyl-6-oxo-5,6-dihydro-1,5-naphthyridine-2-carbonitrile], the results for the IC50 at Human DGKα(9-727) and on full length human DGKζ were 7700 nM and 5200 nM, respectively. Also, the EC50 in assay [1] (setting [3]) is 10000 nM.

Consider `CCO[C@H]1CN(c2cc(=O)n(C)c3ccc(C#N)nc23)CC[C@@H]1Oc1ncc(OC(C)C)cn1` [Example 379, 8-((3S,4S)-3-ethoxy-4-((5-isopropoxypyrimidin-2-yl)oxy)piperidin-1-yl)-5-methyl-6-oxo-5,6-dihydro-1,5-naphthyridine-2-carbonitrile], for which the figures for the IC50 on Human DGKα(9-727) and at full length human DGKζ were 580 nM and 3100 nM, respectively. The EC50 in assay [1] (setting [3]) was determined as 7000 nM.

Turning to `CCO[C@H]1CN(c2cc(=O)n(C)c3ccc(C#N)nc23)CC[C@@H]1Oc1ncc(OC(C)C)cn1` [Example 380, 8-((3S,4S)-3-ethoxy-4-((5-isopropoxypyrimidin-2-yl)oxy)piperidin-1-yl)-5-methyl-6-oxo-5,6-dihydro-1,5-naphthyridine-2-carbonitrile], the concentration for half-maximal inhibition (IC50) is 1300 nM on Human DGKα(9-727) and 14000 nM on full length human DGKζ. Further, the EC50 in assay [1] (setting [3]) amounted to 20000 nM.

As for `CCO[C@H]1CN(c2cc(=O)n(C)c3ccc(C#N)nc23)CC[C@@H]1OCc1cccc(C(F)(F)F)c1` [Example 381, 8-((3S,4S)-3-ethoxy-4-((3-(trifluoromethyl)benzyl)oxy)piperidin-1-yl)-5-methyl-6-oxo-5,6-dihydro-1,5-naphthyridine-2-carbonitrile], the IC50 was found to be 310 nM at Human DGKα(9-727) and 7400 nM on full length human DGKζ. For the same compound, the EC50 in assay [1] (setting [5]) is 240 nM.

As to `CN(C)CCO[C@@H]1CN(c2cc(=O)n(C)c3ccc(C#N)nc23)CC[C@H]1Oc1cccc(C(F)(F)F)c1` [Example 386, 8-((3R,4R)-3-(2-(dimethylamino)ethoxy)-4-(3-(trifluoromethyl)phenoxy)piperidin-1-yl)-5-methyl-6-oxo-5,6-dihydro-1,5-naphthyridine-2-carbonitrile], the IC50 turned out to be 130000 nM at Human DGKα(9-727) and 42000 nM at full length human DGKζ. Further, the EC50 in assay [1] (setting [5]) is 20000 nM.

Take `Cn1c(=O)cc(N2CC[C@@H](Oc3cccc(C(F)(F)F)c3)[C@H](OCC3CC3)C2)c2nc(C#N)ccc21` [Example 387, 8-((3R,4R)-3-(cyclopropylmethoxy)-4-(3-(trifluoromethyl)phenoxy)piperidin-1-yl)-5-methyl-6-oxo-5,6-dihydro-1,5-naphthyridine-2-carbonitrile]: the IC50 was 2100 nM on Human DGKα(9-727) and 97 nM on full length human DGKζ. Moreover, the EC50 in assay [1] (setting [3]) was determined as 650 nM.

Regarding `COCCO[C@@H]1CN(c2cc(=O)n(C)c3ccc(C#N)nc23)CC[C@H]1Oc1cccc(C(F)(F)F)c1` [Example 389, 8-((3R,4R)-3-(2-methoxyethoxy)-4-(3-(trifluoromethyl)phenoxy)piperidin-1-yl)-5-methyl-6-oxo-5,6-dihydro-1,5-naphthyridine-2-carbonitrile], the IC50 on Human DGKα(9-727) came to 2500 nM; at full length human DGKζ it was 270 nM. Moreover, the EC50 in assay [1] (setting [4]) is 3000 nM.

Consider `Cn1c(=O)cc(N2CC[C@@H](Oc3cccc(C(F)(F)F)c3)[C@H](OCCN3CCOCC3)C2)c2nc(C#N)ccc21` [Example 392, 5-methyl-8-((3R,4R)-3-(2-morpholinoethoxy)-4-(3-(trifluoromethyl)phenoxy)piperidin-1-yl)-6-oxo-5,6-dihydro-1,5-naphthyridine-2-carbonitrile], for which the IC50 on Human DGKα(9-727) was 42000 nM; on full length human DGKζ, 24000 nM. In addition, the EC50 in assay [1] (setting [4]) amounted to 13000 nM.

With `Cn1c(=O)cc(N2CC[C@@H](Oc3cccc(C(F)(F)F)c3)[C@H](OCC(F)(F)F)C2)c2nc(C#N)ccc21` [Example 393, 5-methyl-6-oxo-8-((3R,4R)-3-(2,2,2-trifluoroethoxy)-4-(3-(trifluoromethyl)phenoxy)piperidin-1-yl)-5,6-dihydro-1,5-naphthyridine-2-carbonitrile], the figures for the IC50 on Human DGKα(9-727) and on full length human DGKζ were 1100 nM and 380 nM, respectively. In assay [1] (setting [4]), the EC50 was 680 nM.

On to `CCO[C@H]1CN(c2nc(=O)n(C)c3ccc(C#N)nc23)CC[C@@H]1Oc1ccc(C(F)(F)F)cc1` [Example 404, 4-((3S,4S)-3-ethoxy-4-(4-(trifluoromethyl)phenoxy)piperidin-1-yl)-1-methyl-2-oxo-1,2-dihydropyrido[3,2-d]pyrimidine-6-carbonitrile], for which the IC50 stood at 5600 nM on Human DGKα(9-727) and 1200 nM at full length human DGKζ. For the same compound, the EC50 in assay [1] (Homo sapiens, CD8 positive, read-out: DGK HWB (human whole blood pERK), human whole blood, CD8 positive population, anti-CD3 stimulation) is 1300 nM.

Broadly, the IC50 is the midpoint of a concentration-inhibition curve.
